Results reported in US20100331305A1, “OXO-HETEROCYCLE FUSED PYRIMIDINE COMPOUNDS, COMPOSITIONS AND METHODS OF USE” (Genentech, Inc., priority 2009, published 2010).
Values joined by “and” are separate entries in the source; they are usually repeats but may differ in a detail not shown here. Identical values can stand only once.

Legend:
[1] = target: mTOR enzyme (mTOR(1360-2549)+GBL) (Homo sapiens, UniProt P42345); test: In vitro mTOR kinase assay (TR-FRET); format: biochemical; settings: 0.25 nM mTOR+GBL, 8 uM ATP; values tied to compounds by order of Table 1; 'x or y' = two alternative values for separated diastereomers of unassigned stereochemistry; read-out: activity level (Ki) in the mTOR kinase assay
Source text: a. In Vitro mTOR Kinase Assay
The reaction is stopped by an addition of a Terbium-labeled phospho-specific antibody, e.g., Tb-labeled anti-p4E-BP1 T37/T46, (Invitrogen, product #PR8835A), EDTA, and TR-FRET buffer solution (Invitrogen, Product #PR3756B). Product formation is detected by way of time-resolved fluorescence resonance energy transfer (TR-FRET), which occurs when the phosphorylated substrate and labeled antibody are in close proximity due to phospho-specific binding. Enzymatic activity is measured as an increase in TR-FRET signal using a Perkin Elmer Envision plate reader.
Compound activity is tested in 10 point dose curves starting at the highest final concentration of 10 uM. They are serially diluted in 100% DMSO prior to further dilution with assay buffer. […] 8 μL of solution containing 2 nM Tb-anti-p4E-BP1 antibody & 10 mM EDTA diluted TR-FRET buffer is then added and incubated for 30 minutes to stop the reaction. The plate is scanned with the Envision plate reader. Ki values are calculated in Assay Explorer using the Morrison ATP-competitive tight binding equation for Ki apparent determination.

PC3 cells = test: In vitro cell proliferation assay; format: cell-based, human; settings: Homo sapiens, PC-3, with PC3 cells; values tied to compounds by order of Table 1
Procedure: c. In Vitro Cell Proliferation Assay Efficacy of Formula I compounds were measured by a cell proliferation assay employing the following protocol: 1. An aliquot of 20 μl of cell culture containing about 10^3 cells (PC3 or MDAMB361.1) in medium was deposited in each well of a 384-well, opaque-walled plate. 2. Control wells were prepared containing medium and without cells; Cells were allowed to settle overnight. 3. The compound was added to the experimental wells and incubated for 3 days. 4. The plates were equilibrated to room temperature for approximately 30 minutes. 5. A volume of CellTiter-Glo Reagent equal to the volume of cell culture medium present in each well was added. […] The contents were mixed for 2 minutes on an orbital shaker to induce cell lysis. 7. The plate was incubated at room temperature for 20 minutes to stabilize the luminescence signal. 8. Luminescence was recorded and reported in graphs as RLU=relative luminescence units. Alternatively, cells were seeded at optimal density in a 96 well plate and incubated for 4 days in the presence of test compound. Alamar BlueTM was subsequently added to the assay medium, and cells were incubated for 6 h before reading at 544 nm excitation, 590 nm emission. EC50 values were calculated using a sigmoidal dose response curve fit.

Sequence of mTOR enzyme (mTOR(1360-2549)+GBL) (P42345 1360-2549, species assumed): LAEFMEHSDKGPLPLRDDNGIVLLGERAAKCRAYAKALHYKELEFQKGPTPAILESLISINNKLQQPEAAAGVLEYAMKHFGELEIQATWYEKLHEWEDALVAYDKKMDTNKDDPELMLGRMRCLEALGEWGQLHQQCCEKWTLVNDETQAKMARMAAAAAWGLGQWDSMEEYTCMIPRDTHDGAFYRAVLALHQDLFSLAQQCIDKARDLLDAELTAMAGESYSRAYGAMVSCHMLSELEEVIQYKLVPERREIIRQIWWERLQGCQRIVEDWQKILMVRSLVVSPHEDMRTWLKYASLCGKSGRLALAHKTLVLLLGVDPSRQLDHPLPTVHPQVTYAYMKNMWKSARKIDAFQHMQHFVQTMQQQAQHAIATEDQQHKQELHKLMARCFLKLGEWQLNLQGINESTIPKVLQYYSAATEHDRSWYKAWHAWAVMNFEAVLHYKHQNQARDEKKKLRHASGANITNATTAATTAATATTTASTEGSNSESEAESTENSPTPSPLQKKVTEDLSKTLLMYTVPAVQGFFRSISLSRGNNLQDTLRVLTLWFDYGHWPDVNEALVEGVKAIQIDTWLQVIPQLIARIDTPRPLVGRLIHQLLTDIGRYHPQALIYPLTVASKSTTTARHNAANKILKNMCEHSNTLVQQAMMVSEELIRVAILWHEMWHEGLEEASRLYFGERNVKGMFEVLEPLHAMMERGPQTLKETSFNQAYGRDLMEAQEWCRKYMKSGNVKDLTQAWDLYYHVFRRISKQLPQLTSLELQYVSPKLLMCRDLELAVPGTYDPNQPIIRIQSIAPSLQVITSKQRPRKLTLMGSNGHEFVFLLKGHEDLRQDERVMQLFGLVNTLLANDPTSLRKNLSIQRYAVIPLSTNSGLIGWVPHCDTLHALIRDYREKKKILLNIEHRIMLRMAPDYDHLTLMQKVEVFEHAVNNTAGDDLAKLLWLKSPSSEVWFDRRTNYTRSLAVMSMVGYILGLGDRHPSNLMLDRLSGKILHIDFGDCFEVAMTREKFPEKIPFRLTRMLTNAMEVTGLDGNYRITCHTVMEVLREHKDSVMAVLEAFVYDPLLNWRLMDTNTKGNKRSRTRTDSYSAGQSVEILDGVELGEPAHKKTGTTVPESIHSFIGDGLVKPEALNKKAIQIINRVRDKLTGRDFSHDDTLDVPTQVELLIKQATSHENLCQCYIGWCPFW
Sequence of mTOR enzyme (mTOR(1360-2549)+GBL) (Q9BVC4 whole entry partner, species assumed): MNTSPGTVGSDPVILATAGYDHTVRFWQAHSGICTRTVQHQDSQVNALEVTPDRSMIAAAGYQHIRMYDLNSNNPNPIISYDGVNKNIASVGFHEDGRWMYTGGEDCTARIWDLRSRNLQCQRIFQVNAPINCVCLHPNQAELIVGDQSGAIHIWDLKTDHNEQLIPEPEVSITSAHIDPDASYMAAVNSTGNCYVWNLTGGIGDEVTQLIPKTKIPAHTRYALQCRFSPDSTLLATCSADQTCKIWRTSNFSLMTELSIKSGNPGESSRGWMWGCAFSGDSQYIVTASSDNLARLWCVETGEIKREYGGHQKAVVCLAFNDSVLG

Row | SMILES | Ki [1] | EC50 (PC3 cells)
1 | CCNC(=O)Nc1ccc(-c2nc3c(c(N4CCOCC4C)n2)C2CCC(C3)O2)cc1 (single isomer, unassigned) [Example 62 do^2] | 6 nM and 2 nM | 
2 | CC1COCCN1c1nc(-c2ccc(NC(=O)NC3COC3)cc2)nc2c1C1CCC(C2)O1 (single isomer, unassigned) [Example 63 dp^2] | 10 nM and 2 nM | 
3 | CCNC(=O)Nc1ccc(-c2nc3c(c(N4CCOC[C@@H]4C)n2)COC(CO)C3)cc1 (stereo partly drawn) [1-ethyl-3-(4-(7-(hydroxymethyl)-4-((S)-3-methylmorpholino)-7,8-dihydro-5H-pyrano[4,3-d]pyrimidin-2-yl)phenyl)urea] |  | 445 nM
4 | CC[C@H]1COCCN1c1nc(-c2ccc(NC(=O)NC3COC3)cc2)nc2c1COCC2 [Example 6, (S)-1-(4-(4-(3-ethylmorpholino)-7,8-dihydro-5H-pyrano[4,3-d]pyrimidin-2-yl)phenyl)-3-(oxetan-3-yl)urea] |  | 180 nM
5 | CCNC(=O)N(CC)C(=O)Nc1ccc(-c2nc3c(c(N4CCOCC4)n2)CCOC3)cc1 [Example 12, 1-ethyl-1-((ethylamino)carbonyl)-3-(4-(4-morpholino-6,8-dihydro-5H-pyrano[3,4-d]pyrimidin-2-yl)phenyl)urea] | 4330 nM | 
6 | CCNC(=O)N(CC)C(=O)Nc1ccc(-c2nc3c(c(N4CCOC[C@@H]4C)n2)CCOC3)cc1 [Example 13 am, (S)-1-ethyl-1-((ethylamino)carbonyl)-3-(4-(4-(3-methylmorpholino)-6,8-dihydro-5H-pyrano[3,4-d]pyrimidin-2-yl)phenyl)urea] | 1180 nM | 
7 | C[C@H]1COCCN1c1nc(-c2ccc(S(C)(=O)=O)cc2)nc2c1COCC2 [Example 36, (S)-4-(3-methylmorpholino)-2-(4-(methylsulfonyl)phenyl)-7,8-dihydro-5H-pyrano[4,3-d]pyrimidine] | 102 nM | 
8 | CNS(=O)(=O)c1ccc(-c2nc3c(c(N4CCOC[C@@H]4C)n2)COCC3)cc1 [Example 37, (S)—N-methyl-4-(4-(3-methylmorpholino)-7,8-dihydro-5H-pyrano[4,3-d]pyrimidin-2-yl)benzenesulfonamide] | 343 nM | 
9 | C[C@H]1COCCN1c1nc(-c2ccc(NS(C)(=O)=O)cc2)nc2c1COCC2 [Example 38, (S)—N-(4-(4-(3-methylmorpholino)-7,8-dihydro-5H-pyrano[4,3-d]pyrimidin-2-yl)phenyl)methanesulfonamide] | 272 nM | 
10 | C[C@H]1COCCN1c1nc(-c2ccc(NS(=O)(=O)C3CC3)cc2)nc2c1COCC2 [Example 39, (S)—N-(4-(4-(3-methylmorpholino)-7,8-dihydro-5H-pyrano[4,3-d]pyrimidin-2-yl)phenyl)cyclopropanesulfonamide] | 270 nM | 
11 | CCS(=O)(=O)Nc1ccc(-c2nc3c(c(N4CCOC[C@@H]4C)n2)COCC3)cc1 [Example 40, (S)—N-(4-(4-(3-methylmorpholino)-7,8-dihydro-5H-pyrano[4,3-d]pyrimidin-2-yl)phenyl)ethanesulfonamide] | 183 nM | 
12 | COC1CCN(c2nc(-c3ccc(NC(=O)NC4COC4)cc3)nc3c2CCC2(CC2)O3)CC1 [Example 46, 1-(4-(4′-(4-methoxypiperidin-1-yl)-5′,6′-dihydrospiro[cyclopropane-1,7′-pyrano[2,3-d]pyrimidine]-2′-yl)phenyl)-3-(oxetan-3-yl)urea] | 620 nM | 
13 | COC1CCN(c2nc(-c3ccc(NC(=O)Nc4ccn(C)n4)cc3)nc3c2CCC2(CC2)O3)CC1 [Example 47, 1-(4-(4′-(4-methoxypiperidin-1-yl)-5′,6′-dihydrospiro[cyclopropane-1,7′-pyrano[2,3-d]pyrimidine]-2′-yl)phenyl)-3-(1-methyl-1H-pyrazol-3-yl)urea] | 884 nM | 
14 | COC1CCN(c2nc(-c3ccc(Nc4nccc(=O)[nH]4)cc3)nc3c2CCC2(CC2)O3)CC1 [Example 48, 2-(4-(4′-(4-methoxypiperidin-1-yl)-5′,6′-dihydrospiro[cyclopropane-1,7′-pyrano[2,3-d]pyrimidine]-2′-yl)phenylamino)pyrimidin-4(3H)-one] | 392 nM | 
15 | Nc1nc2ccc(-c3nc4c(c(N5C[C@H]6CC[C@@H](C5)O6)n3)CCCO4)cc2[nH]1 [Example 61, 6-(4-((1R,5S)-8-oxa-3-azabicyclo[3.2.1]octan-3-yl)-6,7-dihydro-5H-pyrano[2,3-d]pyrimidin-2-yl)-1H-benzo[d]imidazol-2-amine] | 12 nM | 
16 | C[C@H]1COCCN1c1nc(-c2ccc3nc(N)[nH]c3c2)nc2c1CCCO2 [Example 64, (S)-6-(4-(3-methylmorpholino)-6,7-dihydro-5H-pyrano[2,3-d]pyrimidin-2-yl)-1H-benzo[d]imidazol-2-amine] | 122 nM | 
17 | CCNC(=O)Nc1ccc(-c2nc(N3CCOC[C@@H]3C)c3c(n2)[C@@](C)(CCN2CCOCC2)OC3)cc1 [Example 76 eo (R), 1-ethyl-3-(4-((R)-7-methyl-4-((S)-3-methylmorpholino)-7-(2-morpholinoethyl)-5,7-dihydrofuro[3,4-d]pyrimidin-2-yl)phenyl)urea] | 15 nM | 
18 | CCNC(=O)Nc1ccc(-c2nc(N3CCOC[C@@H]3C)c3c(n2)[C@@](C)(CCN2CCC2)OC3)cc1 [Example 79 er (R), 1-(4-((R)-7-(2-(azetidin-1-yl)ethyl)-7-methyl-4-((S)-3-methylmorpholino)-5,7-dihydrofuro[3,4-d]pyrimidin-2-yl)phenyl)-3-ethylurea] | 57 nM | 
19 | CCNC(=O)Nc1ccc(-c2nc3c(c(N4CCOC[C@@H]4C)n2)COC3=O)cc1 [Example 90, (S)-1-ethyl-3-(4-(4-(3-methylmorpholino)-7-oxo-5,7-dihydrofuro[3,4-d]pyrimidin-2-yl)phenyl)urea] | 76 nM | 
20 | COCC[C@@]1(C)OCc2c(N3CCOC[C@@H]3C)nc(-c3cnc(N)nc3)nc21 [Example 101 go (R), 5-((R)-7-(2-methoxyethyl)-7-methyl-4-((S)-3-methylmorpholino)-5,7-dihydrofuro[3,4-d]pyrimidin-2-yl)pyrimidin-2-amine] | 258 nM | 
21 | COCC[C@]1(C)OCc2c(N3CCOC[C@@H]3C)nc(-c3cnc(N)nc3)nc21 [Example 101 go (S), 5-((S)-7-(2-methoxyethyl)-7-methyl-4-((S)-3-methylmorpholino)-5,7-dihydrofuro[3,4-d]pyrimidin-2-yl)pyrimidin-2-amine] | 393 nM | 
22 | C[C@H]1COCCN1c1nc(-c2cnc(N)nc2)nc2c1CO[C@]2(C)CCOc1ccccc1 [Example 104 gs (R), 5-((R)-7-methyl-4-((S)-3-methylmorpholino)-7-(2-phenoxyethyl)-5,7-dihydrofuro[3,4-d]pyrimidin-2-yl)pyrimidin-2-amine] | 297 nM | 
23 | CC1(C)OCc2c(N3[C@@H]4CC[C@H]3COC4)nc(-c3cnc(N)nc3)nc21 [Example 106, 5-(4-((1R,5S)-3-oxa-8-azabicyclo[3.2.1]octan-8-yl)-7,7-dimethyl-5,7-dihydrofuro[3,4-d]pyrimidin-2-yl)pyrimidin-2-amine] | 10 nM | 
24 | COCC[C@]1(C)OCc2c(N3CCOC[C@@H]3C)nc(-c3ccc(N)nc3)nc21 [Example 111 hf^1] | 101 nM and 30 nM | 
25 | CC1(C)OCc2c(N3CCOCC3)nc(-c3ccc4nc(N)[nH]c4c3)nc21 [Example 118, 6-(7,7-dimethyl-4-morpholino-5,7-dihydrofuro[3,4-d]pyrimidin-2-yl)-1H-benzo[d]imidazol-2-amine] | 4 nM | 
26 | C[C@H]1COCCN1c1nc(-c2ccc3nc(N)[nH]c3c2)nc2c1COC2(C)C [Example 122, (S)-6-(7,7-dimethyl-4-(3-methylmorpholino)-5,7-dihydrofuro[3,4-d]pyrimidin-2-yl)-1H-benzo[d]imidazol-2-amine] | 7 nM | 
27 | CC[C@H]1COCCN1c1nc(-c2ccc(N)nc2)nc2c1CCCO2 [Example 129, (S)-5-(4-(3-ethylmorpholino)-6,7-dihydro-5H-pyrano[2,3-d]pyrimidin-2-yl)pyridin-2-amine] | 11 nM | 
28 | Nc1ncc(-c2nc3c(c(N4C[C@H]5CC[C@@H](C4)O5)n2)CCCO3)cn1 [Example 131, 5-(4-((1R,5S)-8-oxa-3-azabicyclo[3.2.1]octan-3-yl)-6,7-dihydro-5H-pyrano[2,3-d]pyrimidin-2-yl)pyrimidin-2-amine] | 106 nM | 
29 | Nc1ncc(-c2nc3c(c(N4[C@@H]5CC[C@H]4COC5)n2)CCCO3)cn1 [Example 133, 5-(4-((1R,5S)-3-oxa-8-azabicyclo[3.2.1]octan-8-yl)-6,7-dihydro-5H-pyrano[2,3-d]pyrimidin-2-yl)pyrimidin-2-amine] | 97 nM | 
